Assay results as given in PubChem BioAssay (NCI).
Values joined by “and” are separate entries in the source; they are usually repeats but may differ in a detail not shown here. Identical values can stand only once.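 The compound was tested at five concentrations on cells cultured in 96-well plates, with a 48-hour exposure period. GI50 marks 50% less growth. The concentration for full growth arrest is given as TGI.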

Key:
Assay in all cases: NCI tumour cell line growth inhibition, 48 h
[1] = tested on: NCI-H522 lung
[2] = tested on: DU-145 prostate
[3] = tested on: SF-268 CNS
[4] = tested on: SNB-19 CNS
[5] = tested on: OVCAR-8 ovarian
[6] = tested on: HT29 colon
[7] = tested on: SK-MEL-2 melanoma
[8] = tested on: RPMI-8226 leukemia

| Structure (SMILES) | GI50 [1] | TGI [1] | GI50 [2] | TGI [2] | GI50 [3] | TGI [3] | GI50 [4] | TGI [4] | GI50 [5] | TGI [5] | GI50 [6] | TGI [6] | GI50 [7] | TGI [7] | GI50 [8] | TGI [8] |
| --- | --- | --- | --- | --- | --- | --- | --- | --- | --- | --- | --- | --- | --- | --- | --- | --- |
| COc1ccc(/C(C)=C(\c2ccc(Cl)cc2)c2ccc(OCCN3CCCCC3)cc2)cc1F | 3.54 µM | 7.94 µM | 4.64 µM | 15 µM | 5.96 µM | > 16.7 µM | 5.37 µM | > 16.7 µM | 4.11 µM | 12.4 µM | 0.65 µM | > 16.7 µM | 3.53 µM | 7.65 µM | 3.49 µM | 8.49 µM |
| Cc1cc(N2CCOCC2)nc(N(CCNc2ccnc3cc(Cl)ccc23)Cc2cccs2)n1 | 1.72 µM | 3.72 µM | – | – | 3.27 µM | 10.6 µM | 4.24 µM | 76.2 µM | 1.96 µM | 4.06 µM | – | – | 1.99 µM | 4.08 µM | 1.87 µM | 4.04 µM |
| CC(CCC/C=C/CCCN(C)C(=N)N)CC(C)C1OC(=O)C(C)C(O)/C=C/C(C)C(O)C(C)C(O)C(C)C(O)CCCC(O)CC2(O)OC(CC(OC(=O)CC(=O)O)CC(O)CC(O)C(C)C(O)/C=C/C=C/C1C)CC(O)C2O (configuration not stated) | 2.38 µM and 2.79 µg/mL | 10.5 µM and 12.9 µg/mL | 2.22 µM and 6.85 µg/mL | 4.71 µM and 16 µg/mL | 2.76 µM and 6.7 µg/mL | 7.24 µM and 16.5 µg/mL | 4.9 µM and 10.1 µg/mL | 17 µM and 21.8 µg/mL | 2.54 µM and 7.93 µg/mL | 5.88 µM and 19.8 µg/mL | 1.76 µM and 3 µg/mL | 3.41 µM and 11.7 µg/mL | 7.22 µM and 10.2 µg/mL | 23 µM and 20.5 µg/mL | 2.71 µM and 9.09 µg/mL | 10.5 µM and 28 µg/mL |
| COc1ccc(-c2nccn2-c2cc(OC)c(OC)c(OC)c2)cc1 | 2.8 µM | > 100 µM | 13.1 µM | > 100 µM | 16.6 µM | > 100 µM | 4.77 µM | > 35.6 µM | 12 µM | > 100 µM | 1.05 µM | > 46.2 µM | 36.1 µM | > 100 µM | 8.06 µM | > 93.2 µM |
| NC(=O)NOCC1NC(=O)NC1=O (configuration not stated) | – | > 100 µM | – | > 100 µM | – | > 100 µM | – | > 100 µM | – | > 100 µM | – | > 100 µM | – | > 100 µM | – | > 100 µM |
| Cn1c(N)cc(=O)nc1N | – | > 100 µM | – | > 100 µM | – | > 100 µM | – | > 100 µM | – | > 100 µM | – | > 100 µM | – | > 100 µM | – | > 100 µM |
| COc1ccc(C2CC(c3cccc(Nc4ccnc5cc(Cl)ccc45)c3)=NN2c2ccc(Cl)cc2)cc1 (configuration not stated) | 4.09 µM | 23.2 µM | 28.4 µM | > 100 µM | 15.5 µM | > 100 µM | 15.9 µM | > 100 µM | 5 µM | 91 µM | – | – | 11.5 µM | 38.9 µM | 4.7 µM | 31.9 µM |
| C/C=C\C(C)=C/C(C)C(=O)CC(O)CC1CC(=O)NC(=O)C1 (configuration not stated) | – | 13.6 µM | – | > 100 µM | – | > 100 µM | – | > 90.6 µM | – | 98.8 µM | – | > 100 µM | – | > 100 µM | – | > 76.6 µM |
| COc1ccc(N2CCN(CC(=O)N3CCN(c4nnc(-c5ccc(Cl)cc5)c(-c5ccc(Cl)cc5)n4)CC3)CC2)cc1 | 9.2 µM | > 100 µM | 75 µM | > 100 µM | > 100 µM | > 100 µM | > 100 µM | > 100 µM | 22.1 µM | > 100 µM | 4.03 µM | 43.2 µM | 25.8 µM | > 100 µM | 6.05 µM | > 100 µM |
| CN(C)c1ccc(/C=C/C(=O)c2ccc(Nc3nc(Nc4ccc(F)cc4)nc(Nc4ccc(Cl)cc4)n3)cc2)cc1 | 3.17 µM | 24.1 µM | 5.5 µM | 27 µM | 6.75 µM | 63.6 µM | 17.1 µM | > 100 µM | 1.99 µM | 15.1 µM | 5.18 µM | 38.9 µM | 4.6 µM | 18.6 µM | 3.53 µM | 26.5 µM |
| CCCC1C2=C(C(=O)OC2=O)C2C(CC)CC3=C(C(=O)OC3=O)C12 (configuration not stated) | – | – | – | > 100 µM | – | > 100 µM | – | > 100 µM | – | > 100 µM | – | > 100 µM | – | > 100 µM | – | > 100 µM |
| Oc1ccc(-c2nc(-c3ccc4oc5ccc(-c6[nH]c(-c7ccc(O)cc7)nc6-c6ccccc6)cc5c4c3)c(-c3ccccc3)[nH]2)cc1 | 2.95 µM | 8.02 µM | 4.83 µM | 20.6 µM | 5.57 µM | 65.3 µM | 19.1 µM | 83.5 µM | 2.23 µM | 5.32 µM | 3.8 µM | 11.3 µM | – | – | 3.17 µM | > 100 µM |
| Cc1nc2cc(NC(=O)CN3CCN(CCN4C(=O)c5cccc6cccc(c56)C4=O)CC3)ccc2s1 | 3.01 µM | 13.8 µM | 5.21 µM | 17.1 µM | 5.01 µM | 24.9 µM | 6.23 µM | 21.4 µM | 2.77 µM | 19.4 µM | 3.39 µM | 19.6 µM | 6.62 µM | 24.1 µM | 2.91 µM | 15.2 µM |
| CCS(=O)(=O)Nc1ccc(Oc2ccc(F)cc2F)c(-c2cn(C)c(=O)c3[nH]ccc23)c1 | < 0.01 µM | 5.92 µM | 2.88 µM | 31.4 µM | 1.57 µM | 53.2 µM | 0.31 µM | 30.9 µM | 0.253 µM | 43.1 µM | < 0.01 µM | 14.1 µM | 0.761 µM | 15.9 µM | < 0.0232 µM | 17.5 µM |
| O=C(/C=C\c1ccc(Cl)c(Cl)c1)c1ccccc1 | 10.2 µM | 22.2 µM | 10.1 µM | 21.9 µM | 11.1 µM | 24.7 µM | 10.6 µM | 23.6 µM | 3.98 µM | 15.1 µM | 2.27 µM | 5.37 µM | 13.8 µM | 27.4 µM | 2.11 µM | 4.86 µM |
| Cc1ccc(SCN2CCCCC2)cc1 (tested in a mixture with another compound) | – | 8.86 µM | – | 28.1 µM | – | 20.6 µM | – | 49.9 µM | – | > 100 µM | – | 31.5 µM | – | 31.1 µM | – | 29.5 µM |
